In patent US4098778A, “β-Endorphin analog” (Hoffmann-La Roche Inc., priority 1977, dated 1978):

Key:
[1] = test system: guinea pig ileum; experiment: In vitro opiate activity, guinea pig ileum method of Kosterlitz et al.; format: cell-based; conditions: for In vitro opiate activity: guinea pig ileum, βc-endorphin = 100
Text: The opiate activity of the peptide of the invention, the parent peptide and other fragment analogs thereof as assayed in vitro by the guinea pig ileum method of Kosterlitz et al., Brit. J. Pharmacol. 39, 398 (1970) is seen in Table 2 below.

[2] = test system: mice; experiment: Analgesic activity in mice by the tail-flick method, peptide injected icv; format: in vivo; conditions: for In vivo analgesic activity Relative Potency: molar basis, βc-endorphin = 100; for In vivo analgesic activity AD50: tail-flick, male ICR mice, (95% confidence limit)
Experimental: The analgesic activity of the synthetic products was assessed in mice by the tail-flick method of D'Amour and Smith J. Pharmacol. Exp. Ther. 72, 74 (1941). Male ICR mice weighing 25-30 g were used. The peptide was injected icv in a volume of 5 μl as described by Haley and McCormick, Br. J. Pharmacol. 12, 12 (1957). To evaluate the tail-flick response, a control latency (T0) was obtained from the mean of two latencies determined prior to the peptide injection; the test latencies (T1) were determined at various times after injection for each animal. "Percent analgesia" was calculated as [(T1 -T0)/(T2 -T0)] × 100; where the cutoff time (T2) was 10 sec. With a twofold increase in latency of reaction time of the reponse as a quantal index of inhibition, the median antinociceptive dose (AD50) and 95% confidence limits were calculated as described by Litchfield and Wilcoxon, J. Pharmacol. Exp. Ther. 96, 99 (1949).

βh -Endorphin-(1-5)-(16-31) was tested, and the “In vitro opiate activity” value [1] was 135, the “In vivo analgesic activity Relative Potency” value [2] was 0.3 and the “In vivo analgesic activity AD50” value ([2]; icv) was 25.1(16.8-37.1) μg/mouse.
“βc -endorphin (6-31) (TSEKSQTPLVTLFKNAIIKNAHKKGQ; Beta-endorphin; UniProt P01203 6-31, looked up, fragment) [βc -Endorphin-(6-31)]” was tested, and the “reversal of activity by naloxone” value ([1]; activity as assayed in vitro) was “not reversed by naloxone”, the “In vitro opiate activity” value [1] was 4 and the “potency relative to βc-endorphin as assayed in vitro” value ([1]; of βc-endorphin) was 4%. The “inhibition of the tail-flick response” value ([2]; doses of 42.5 and 85 μg, icv, mice) was “slight inhibition of the tail-flick response”, the “analgesic activity (tail flick method)” value ([2]; mice) was “intrinsic measurable analgesic activity” and the “In vivo analgesic activity Relative Potency” value [2] was under 0.1. The “In vivo analgesic activity AD50” value ([2]; icv) was over 86 μg/mouse.
For βc -Endorphin-(1-5)-(28-31), the “In vitro opiate activity” value [1] was 35, the “In vivo analgesic activity Relative Potency” value [2] was under 0.1 and the “In vivo analgesic activity AD50” value ([2]; icv) was over 86 μg/mouse.
“βc -endorphin (YGGFMTSEKSQTPLVTLFKNAIIKNAHKKGQ; Beta-endorphin; UniProt P01203 1-31, looked up) [parent peptide]” was tested, and the “In vitro opiate activity” value [1] was 100, the “In vivo analgesic activity Relative Potency” value [2] was 100 and the “In vivo analgesic activity AD50” value ([2]; icv) was 0.11 (0.07-0.17) μg/mouse.
